This passage reports Ki results from US6727264B1 (Synaptic Pharmaceutical Corporation, priority 2001, dated 2004).

In this test the target is rat MCH-1 (Rattus norvegicus, UniProt P97639). Nature of the test: Radioligand binding assay at cloned rat MCH1 receptor ([3H] Compound A). More on the design: host or cells: Peak rapid 293 (Peakr293) cells, transient calcium phosphate transfection, membranes. Conditions: cloned rat MCH1 receptor, membranes from Peakr293 cells, 0.08 nM [3H] Compound A; read-out: Ki (nM) rMCH1.
rat MCH-1, sequence (P97639 whole entry): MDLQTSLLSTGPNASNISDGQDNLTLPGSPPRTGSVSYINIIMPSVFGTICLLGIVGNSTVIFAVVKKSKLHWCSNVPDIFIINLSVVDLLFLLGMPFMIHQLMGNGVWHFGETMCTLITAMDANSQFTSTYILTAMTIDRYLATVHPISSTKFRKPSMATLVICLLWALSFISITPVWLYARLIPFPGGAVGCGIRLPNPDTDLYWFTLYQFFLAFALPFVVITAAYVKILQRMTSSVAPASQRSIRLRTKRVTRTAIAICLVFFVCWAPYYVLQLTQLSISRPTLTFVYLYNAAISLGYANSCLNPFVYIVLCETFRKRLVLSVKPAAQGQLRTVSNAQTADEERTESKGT
In general, Ki refers to the dissociation constant of the complex between target and ligand, obtained from inhibition or displacement. Consider `COc1ccc2[nH]c(-c3ccccc3)c(CCCCN3CCC(c4cccc(NC(=O)C(C)C)c4)CC3)c2c1` [Example 92], for which the Ki came to 8 nM.

Regarding `CC(C)C(=O)Nc1cccc(C2CCN(Cc3cn(-c4ccccc4)c4ccccc34)CC2)c1` [Example 93], the Ki was 4.2 nM.

Turning to `CC(C)C(=O)Nc1cccc(C2CCN(CCC/C(=N\Nc3ccccn3)c3ccccc3)CC2)c1` [Example 94], the Ki was determined as 2.3 nM. In the case of `COc1ccc2[nH]cc(CCCN3CCC(c4cccc(NC(=O)C(C)C)c4)CC3)c2c1` [Example 95], the Ki came out at 5.4 nM. For the molecule `CC(C)C(=O)Nc1cccc(C2CCN(CCCCCCn3ccc4ccccc43)CC2)c1` [Example 96], the Ki is 15.9 nM. As to `CC(C)C(=O)Nc1cccc(C2CCN(CCCCCn3ccc4ccccc43)CC2)c1` [Example 97], the Ki came to 27.3 nM. `CCn1c2ccccc2c2cc(CN3CCC(c4ccc(NC(=O)C(C)C)cc4)CC3)ccc21` [Example 98]: the Ki was 37.9 nM. Take `COc1ccc(-n2ccc3cc(CN4CCC(c5cccc(NC(=O)C(C)C)c5)CC4)ccc32)cc1` [Example 100]: the Ki was 27.5 nM. Then `CC(C)C(=O)Nc1cccc(C2CCN(Cc3ccc4c(ccn4-c4ccc(F)cc4)c3)CC2)c1` [Example 101], with 7.8 nM; and `Cc1cccc(-n2ccc3cc(CN4CCC(c5cccc(NC(=O)C(C)C)c5)CC4)ccc32)c1` [Example 103], with 21.3 nM. As for `CC(C)C(=O)Nc1cccc(C2CCN(CCCNS(=O)(=O)c3ccc(Cl)c([N+](=O)[O-])c3)CC2)c1` [Example 104], the Ki worked out at 11.2 nM. Turning to `CC(C)C(=O)Nc1cccc(C2CCN(CCCCCN3C(=O)OCC3c3ccc(F)c(F)c3)CC2)c1` (stereo not shown) [Example 105], the Ki was found to be 4.6 nM. Then `CC(C)C(=O)Nc1cccc(C2CCN(CCNC(=O)C(c3ccccc3)c3ccccc3)CC2)c1` [Example 107], with 1.7 nM; and `Cc1cc(CN2CCC(c3cccc(NC(=O)C(C)C)c3)CC2)c(C)n1-c1cccc(C(F)(F)F)c1` [Example 109], with 20.9 nM. For `CC(C)C(=O)Nc1cccc(C2CCN(Cc3ccc(Oc4ccc(Cl)c(Cl)c4)cc3)CC2)c1` [Example 112], the Ki stood at 6.1 nM. For the molecule `CC(C)C(=O)Nc1cccc(C2CCN(Cc3ccc(N(c4ccccc4)c4ccccc4)cc3)CC2)c1` [Example 114], the Ki is 3.6 nM. `CC(C)C(=O)Nc1cccc(C2CCN(CCC(=O)c3ccc(Br)cc3)CC2)c1` [Example 117]: the Ki is 19 nM. With `CC(C)C(=O)Nc1cccc(C2CCN(CCC(=O)c3ccc(Cl)cc3)CC2)c1` [Example 118] the figure was 43.6 nM.

Turning to `COc1ccc(C(=O)CCN2CCC(c3cccc(NC(=O)C(C)C)c3)CC2)cc1` [Example 119], the Ki was determined as 75.7 nM.

As to `CC(C)C(=O)Nc1cccc(C2CCN(CCC(=O)c3ccc4c(c3)CCC4)CC2)c1` [Example 120], the Ki amounted to 31.1 nM. `CC(C)C(=O)Nc1cccc(C2CCN(CCC(=O)c3ccccc3)CC2)c1` [Example 121]: the Ki is 184 nM. As for `Cc1ccc(C(=O)CCN2CCC(c3cccc(NC(=O)C(C)C)c3)CC2)cc1` [Example 122], the Ki is 85.1 nM. Then `CC(C)C(=O)Nc1cccc(C2CCN(CCC(=O)c3ccc(F)cc3)CC2)c1` [Example 123], with 450 nM.

On to `CC(C)C(=O)Nc1cccc(C2CCN(CCC(O)c3ccc(Cl)cc3)CC2)c1` (stereo not shown) [Example 124], for which the Ki turned out to be 33 nM. Then `CC(C)C(=O)Nc1cccc(C2CCN(CCC(Oc3ccc(F)c(F)c3)c3ccc(Cl)cc3)CC2)c1` (stereo not shown) [Example 125], with 5.4 nM. For the molecule `Cc1ccccc1OC(CCN1CCC(c2cccc(NC(=O)C(C)C)c2)CC1)c1ccc(Cl)cc1` (stereo not shown) [Example 126], the Ki amounted to 13.8 nM. Regarding `CC(C)C(=O)Nc1cccc(C2CCN(CCC(O)c3ccc(F)cc3)CC2)c1` (stereo not shown) [Example 127], the Ki worked out at 168 nM.

On to `COc1ccc(C(O)CCN2CCC(c3cccc(NC(=O)C(C)C)c3)CC2)cc1` (stereo not shown) [Example 128, N-(3-{1-[3-HYDROXY-3-(4- METHOXYPHENYL)PROPYL]-4-PIPERIDINYL}PHENYL)-2-METHYLPROPANAMIDE], for which the Ki amounted to 329 nM.

With `CC(C)C(=O)Nc1cccc(C2CCN(CCC(O)c3ccc(Br)cc3)CC2)c1` (stereo not shown) [Example 129], the Ki worked out at 38.8 nM. As for `COc1ccc(OC(CCN2CCC(c3cccc(NC(=O)C(C)C)c3)CC2)c2ccc(Cl)cc2)cc1` (stereo not shown) [Example 130], the Ki amounted to 6 nM. As for `CC(C)C(=O)Nc1cccc(C2CCN(CCC(Oc3ccc(Cl)cc3)c3ccc(F)cc3)CC2)c1` (stereo not shown) [Example 131], the Ki is 11.9 nM. In the case of `CC(C)C(=O)Nc1cccc(C2CCN(CCC(Oc3c(F)c(F)c(F)c(F)c3F)c3ccc(F)cc3)CC2)c1` (stereo not shown) [Example 132], the Ki turned out to be 41.7 nM. Take `Cc1ccccc1OC(CCN1CCC(c2cccc(NC(=O)C(C)C)c2)CC1)c1ccc(Br)cc1` (stereo not shown) [Example 133]: the Ki came out at 14.1 nM. For the molecule `CC(C)C(=O)Nc1cccc(C2CCN(CCC(Oc3ccc(F)c(F)c3)c3ccc(F)cc3)CC2)c1` (stereo not shown) [Example 134], the Ki was 36.6 nM. As for `CC(C)C(=O)Nc1cccc(C2CCN(CCC(Oc3ccc(Br)cc3)c3ccc(F)cc3)CC2)c1` (stereo not shown) [Example 135], the Ki was 10.9 nM. Take `CC(C)C(=O)Nc1cccc(C2CCN(CCC(Oc3ccc(Cl)c(Cl)c3)c3ccc(F)cc3)CC2)c1` (stereo not shown) [Example 136]: the Ki stood at 15.9 nM.

Take `CC(C)C(=O)Nc1cccc(C2CCN(CCC(Oc3ccc(C(F)(F)F)cc3)c3ccc(F)cc3)CC2)c1` (stereo not shown) [Example 137]: the Ki is 25.2 nM. Turning to `CC(C)C(=O)Nc1cccc(C2CCN(CCC(Oc3cccc(Br)c3)c3ccc(F)cc3)CC2)c1` (stereo not shown) [Example 138], the Ki stood at 9.3 nM. Then `CC(C)C(=O)Nc1cccc(C2CCN(CCC(Oc3ccc(F)cc3)c3ccc(F)cc3)CC2)c1` (stereo not shown) [Example 139], with 38.7 nM. As to `CC(C)C(=O)Nc1cccc(C2CCN(CCC(Oc3cccc(F)c3)c3ccc(F)cc3)CC2)c1` (stereo not shown) [Example 140], the Ki is 27.4 nM. As for `CC(C)C(=O)Nc1cccc(C2CCN(CCC(Oc3c(Cl)cccc3Cl)c3ccc(F)cc3)CC2)c1` (stereo not shown) [Example 141], the Ki was found to be 61 nM. Turning to `CC(C)C(=O)Nc1cccc(C2CCN(CCC(Oc3cc(F)ccc3F)c3ccc(F)cc3)CC2)c1` (stereo not shown) [Example 142], the Ki was found to be 18.3 nM. Then `CC(C)C(=O)Nc1cccc(C2CCN(CCC(Oc3cccc(Cl)c3)c3ccc(F)cc3)CC2)c1` (stereo not shown) [Example 143], with 8.7 nM; and `Cc1cccc(OC(CCN2CCC(c3cccc(NC(=O)C(C)C)c3)CC2)c2ccc(Br)cc2)c1` (stereo not shown) [Example 144], with 13.4 nM; and `CC(C)C(=O)Nc1cccc(C2CCN(CCC(Oc3ccc(-c4ccccc4)cc3)c3ccc(Br)cc3)CC2)c1` (stereo not shown) [Example 145], with 197 nM. In the case of `CC(C)C(=O)Nc1cccc(C2CCN(CCC(Oc3ccc(F)cc3F)c3ccc(F)cc3)CC2)c1` (stereo not shown) [Example 146], the Ki came out at 19.2 nM.

Consider `COc1cccc(OC(CCN2CCC(c3cccc(NC(=O)C(C)C)c3)CC2)c2ccc(Br)cc2)c1` (stereo not shown) [Example 147], for which the Ki turned out to be 8.7 nM.

For the molecule `COC(=O)c1ccc(OC(CCN2CCC(c3cccc(NC(=O)C(C)C)c3)CC2)c2ccc(Br)cc2)cc1` (stereo not shown) [Example 148, METHYL 4-(1-(4-BROMOPHENYL)-3-{4-[3-(ISOBUTYRYLAMINO)PHENYL]-1-PIPERIDINYL}PROPOXY)BENZOATE], the Ki stood at 24.7 nM. Regarding `CC(C)C(=O)Nc1cccc(C2CCN(CCC(Oc3ccc(Oc4ccccc4)cc3)c3ccc(Br)cc3)CC2)c1` (stereo not shown) [Example 149], the Ki amounted to 149 nM. Take `Cc1ccc(OC(CCN2CCC(c3cccc(NC(=O)C(C)C)c3)CC2)c2ccc(Br)cc2)c(Cl)c1` (stereo not shown) [Example 150]: the Ki was 8 nM. Then `CC(C)C(=O)Nc1cccc(C2CCN(CCC(Oc3ccccc3)c3ccc(Br)cc3)CC2)c1` (stereo not shown) [Example 151], with 14.2 nM; and `CC(C)C(=O)Nc1cccc(C2CCN(CCC(Oc3ccc(C(F)(F)F)cc3)c3ccc(Br)cc3)CC2)c1` (stereo not shown) [Example 152], with 13.3 nM. On to `CC(=O)c1ccccc1OC(CCN1CCC(c2cccc(NC(=O)C(C)C)c2)CC1)c1ccc(Br)cc1` (stereo not shown) [Example 153], for which the Ki was 8.1 nM. With `CC(=O)c1cccc(OC(CCN2CCC(c3cccc(NC(=O)C(C)C)c3)CC2)c2ccc(Br)cc2)c1` (stereo not shown) [Example 154], the Ki came out at 9.3 nM. In the case of `CC(=O)c1cccc(OC(CCN2CCC(c3cccc(NC(=O)C(C)C)c3)CC2)c2ccc3c(c2)CCC3)c1` (stereo not shown) [Example 155], the Ki came out at 7.4 nM.

Take `CC(C)C(=O)Nc1cccc(C2CCN(CCC(Oc3ccccc3)c3ccc4c(c3)CCC4)CC2)c1` (stereo not shown) [Example 156]: the Ki amounted to 8.8 nM. For `CC(=O)c1ccccc1OC(CCN1CCC(c2cccc(NC(=O)C(C)C)c2)CC1)c1ccc2c(c1)CCC2` (stereo not shown) [Example 157, N-(3-{1-[3-(2- ACETYLPHENOXY)-3-(2,3-DIHYDRO-1H-INDEN-5-YL)PROPYL]-4-PIPERIDINYL}PHENYL)-2-METHYLPROPANAMIDE], the Ki is 15.4 nM. `CC(C)C(=O)Nc1cccc(C2CCN(CCC(Oc3ccc(Br)cc3)c3ccc(Br)cc3)CC2)c1` (stereo not shown) [Example 158]: the Ki was found to be 7.8 nM. For `CC(C)C(=O)Nc1cccc(C2CCN(CCC(Oc3ccc(Cl)cc3)c3ccc(Br)cc3)CC2)c1` (stereo not shown) [Example 159], the Ki was 4.5 nM. Regarding `CC(C)C(=O)Nc1cccc(C2CCN(CCC(Oc3ccc(F)cc3)c3ccc(Br)cc3)CC2)c1` (stereo not shown) [Example 160], the Ki is 6.2 nM. For the molecule `COc1ccc(OC(CCN2CCC(c3cccc(NC(=O)C(C)C)c3)CC2)c2ccc3c(c2)CCC3)cc1` (stereo not shown) [Example 161], the Ki is 7.9 nM. Regarding `CC(C)C(=O)Nc1cccc(C2CCN(CCC(Oc3ccc(F)cc3)c3ccc4c(c3)CCC4)CC2)c1` (stereo not shown) [Example 162], the Ki worked out at 7.2 nM. With `CC(C)C(=O)Nc1cccc(C2CCN(CCC(O)c3ccc4c(c3)CCC4)CC2)c1` (stereo not shown) [Example 163] the figure was 58.3 nM. Take `CC(C)C(=O)Nc1cccc(C2CCN(CCC(Oc3ccc(C(F)(F)F)cc3)c3ccc4c(c3)CCC4)CC2)c1` (stereo not shown) [Example 164]: the Ki turned out to be 16.3 nM.
